Consider 14 compounds from PubChem BioAssay (NCI).

Where “and” joins values, the source holds several entries; their conditions need not be identical. Equal entries are not always repeated.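 Assay format: 96-well plates, 48-hour exposure. GI50 marks 50% less growth. At the TGI there is no net growth.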

Assay in all cases: NCI-60 cell line screen, 48 h
The test system of assay [1] is M19-MEL melanoma.
Assay [2] deals with SNB-78 CNS.
Assay [3] has as its system HOP-92 NSCLC.
Assay [4] concerns HS 578T breast.
Assay [5] deals with MDA-MB-231 breast.
The test system of assay [6] is T-47D breast.
Assay [7] deals with BT-549 breast.
For assay [8], the system named is MDA-N.
Assay [9] concerns 786-0 renal.
For assay [10], the system named is MDA-MB-435.
In assay [11] the test system is NCI/ADR-RES ovarian.

For `C/C(=N\NC(=O)c1cccnc1)c1cccc(/C(C)=N/NC(=O)c2cccnc2)n1`, the TGI in assay [1] is 68.6 µM; in assay [2] it was 97.9 µM; in [3], 59.1 µM. In addition, the figures for the GI50 in assay [2] and in [3] were 7.53 µM and 7.41 µM, respectively.

On to `CC(=O)OC1CC(O)CC2=CCC3C4CCC(C(C)(O)C(O)CC5COC(=O)C5C)C4(C)CCC3C21C` (stereo not given), for which the TGI in assay [4], in [5], in assay [6], in assay [7], in assay [8] and in assay [3] was above 25 µM throughout. For the same compound, the TGI in assay [9] and in [10] was above 25 µM each time.

Take `O=C1c2cc3c(cc2-c2c1c1ccc(Cl)cc1c(=O)n2C[C@H](O)[C@@H](O)[C@H](O)CO)OCO3`: the GI50 is 0.328 µM in assay [4]; 0.0335 µM in [11]; 0.333 µM in [5]; 0.0132 µM in assay [6]; 0.0301 µM in assay [7]; 0.069 µM in assay [3]. The TGI in assay [4] is above 100 µM; in [11], 1.91 µM; in assay [5], 3.76 µM; in assay [6], 0.29 µM; in [7] it was 1.36 µM; in assay [3], 0.666 µM.

On to `CC1(C)CCC2(C(=O)OC3OC(CO)C(O)C(O)C3O)CCC3(C)C(=CCC4C5(C)CCC(OC6OC(CO)C(O)C(O)C6O)C(C)(C)C5CCC43C)C2C1` (stereo not given), for which the TGI in assay [4] was above 25 µM; in [5], above 25 µM; in [6], 24.3 µM; in assay [7] it was above 25 µM; in assay [3], above 25 µM; in assay [9], above 25 µM. This compound also returned a TGI in [10] above 25 µM.

Take `O=[N+]([O-])c1ccc2c(c1)c(N=NC(=S)NC1CCCCC1)c(O)n2CN1CCOCC1`: the TGI stood at 45.8 µM in assay [4]; 18.7 µM in assay [11]; 31.8 µM in assay [5]; 17.7 µM in assay [6]; 20.8 µM in [7]; 20 µM in assay [8]. The TGI in assay [3] came out at 12.9 µM; in assay [9] it was 18.6 µM; in [10], 20 µM.

With `O=S1(=O)OC(c2ccc(O)cc2)(c2ccc(O)cc2)c2ccccc21`, the TGI in assay [4], in assay [11], in assay [5], in assay [6], in assay [7] and in [3] was above 100 µM throughout. For the same compound, the TGI in [9] and in [10] was above 100 µM throughout.

As for `Clc1ccc(Nc2nc(Cl)c3[nH]cnc3n2)cc1Cl`, the TGI in [4] was 56.3 µM; in assay [11], above 100 µM; in [5], 51.9 µM; in assay [6] it was 80.4 µM; in assay [7], 79.1 µM; in [8] it was above 100 µM. Besides, the figures for the TGI in assay [3], in assay [9] and in [10] were 53.4 µM, 30.8 µM and 80.3 µM, respectively.

Take `O=[n+]1c2c(n([O-])c3ccccc31)-c1cccc3cccc-2c13`: the TGI in [4], in [11], in assay [5], in [6], in assay [8] and in assay [3] was above 100 µM throughout. For the same compound, the TGI in assay [10] is above 100 µM.

For the compound `CCOC(=O)/C(=C\NCC(OCC)OCC)c1nc2ccccc2[nH]1`, the TGI is above 100 µM in [4]; 24.4 µM in [11]; 94.5 µM in assay [6]; 62.4 µM in assay [7]; 85.2 µM in assay [8]; above 100 µM in [3]. Also, the TGI was above 100 µM in assay [9] and 73.3 µM in assay [10].

In [2], `CCOC(=O)C1CCn2c(nc3c2c(=O)n(C)c(=O)n3C)S1` (stereo not given) displayed a TGI above 100 µM.

Consider `N[C@H]1CCN(c2c(F)cc3c(=O)c(C(=O)O)cn4c3c2Oc2cc3c(ccc5ccccc53)cc2-4)C1`, for which the TGI is above 100 µM in assay [11]; 0.864 µM in [5]; above 100 µM in assay [7]; above 100 µM in assay [8]; 6.29 µM in [3]; above 100 µM in assay [9]. The same compound yielded a TGI in assay [10] above 100 µM.

For `CC[C@@]1(O)C(=O)OCc2c1cc1n(c2=O)Cc2c-1nc1ccc(O)cc1c2CC[Si](C)(C)C`, the TGI was 1.84 µM and 1.56 µM in assay [11]; 12.9 µM in assay [5]; 4.09 µM in assay [7]; 0.0308 µM in assay [3]; 0.495 µM and 0.887 µM in assay [10]. The GI50 in assay [5] is 0.12 µM.

In the case of `COc1c2c(cc3c1C(O)N1CC[C@]34[C@H]3O[C@H]3[C@H](OC)C[C@@H]14)OCO2` (stereo not given in full), the TGI in assay [4] is above 100 µM; in [11] it was above 100 µM; in assay [5], above 100 µM; in assay [6], above 100 µM; in assay [7], above 100 µM; in assay [8] it was 67.8 µM. Also, the TGI in assay [3], in assay [9] and in [10] was above 100 µM throughout.

With `NCCNc1nc(N2CCCC2)c2nc(Cl)c(NCc3ccccc3)nc2n1`, the TGI in [4] stood at 12.8 µM; in assay [11], 33.1 µM; in [5], 2.87 µM; in assay [6], 3.79 µM; in [7], 4.12 µM; in assay [8], 3.1 µM. Also, the TGI worked out at 6.1 µM in assay [3], 3.08 µM in [9] and 3.19 µM in assay [10].
